Experimental data published in patent US12528808B2, “Therapy for erythropoietic protoporphyria (EPP) and X-linked protoporphyria (XLP)” (UNIVERSITY OF PITTSBURGH-OF THE COMMONWEALTH SYSTEM OF …, priority 2019, dated 2026).
“Also recorded” adds a separate entry of the source.

Experiments:
[1] = Metabolic stability assay, incubation with human liver microsomes (HLM); type: in vitro ADME; conditions: remaining parent compound
Method: Metabolic Stability Assay.
After the incubation (0-60 min), the remaining parent compounds were analyzed by UPLC-QTOFMS.

WT and Abcg2-null mice = assay: Chemically-induced PPIX accumulation and hepatotoxicity in WT and Abcg2-null mice; conditions: DDC 0.1% or GSF 2.5% in diet, two weeks
Method: Animal Studies to Determine the Role of ABCG2 in Chemically-Induced PPIX Accumulation and Hepatotoxicity
WT and Abcg2-null mice were treated with DDC (0.1% in diet) or GSF (2.5% in diet) for two weeks. In addition, hPXR and hPXR/Abcg2-null mice were treated with RIF (100 mg/Kg diet) and INH (400 mg/L drinking water) for four weeks. After the treatment, blood and liver samples were collected for evaluation of liver injury and analysis of PPIX.
Liver injury was evaluated by analyzing serum alanine aminotransaminase (ALT), aspartate aminotransferase (AST), alkaline phosphatase (ALP) (Pointe Scientific Canton, MI), and total bilirubin (Sigma-Aldrich, St. Louis, MO). These liver injury biomarkers were analyzed according to the standard procedures provided by the manufacturers. Blood toxicity was evaluated by analyzing mean corpuscular hemoglobin (MCH) (HESKA HemaTrue; Loveland, CO) and total hemoglobin (tHb) (AVOXimeter 4000; Edison, NJ).
Liver and skin tissues were first fixed in 4% formaldehyde phosphate solution overnight and then dehydrated and embedded in paraffin. […] sections were cut and stained. For hematoxylin and eosin (H&E) staining, tissue sections were stained in hematoxylin solution for 5 min, washed with tap water for 1 min, and then differentiated in 1% acetic acid solution for 1 min and followed by staining in eosin solution for 1 min. For Sirius Red Staining, tissue sections were stained in 0.1% PicroSirius Red solution for 1 h, and then washed with 1% acetic acid solution twice.

ABCG2 = biological target: T1, ABCG2 (Homo sapiens, UniProt Q9UNQ0); assay: Protoporphyrin IX (PPIX)-based ABCG2 inhibition assay using the A549 cancer cell line; conditions: read-out: IC50, the half maximal inhibitory concentration
T1 construct: developed using the A549 cancer cell line; endogenous in cells; host or cells: A549 cancer cell line
T1 sequence (Q9UNQ0 1-655): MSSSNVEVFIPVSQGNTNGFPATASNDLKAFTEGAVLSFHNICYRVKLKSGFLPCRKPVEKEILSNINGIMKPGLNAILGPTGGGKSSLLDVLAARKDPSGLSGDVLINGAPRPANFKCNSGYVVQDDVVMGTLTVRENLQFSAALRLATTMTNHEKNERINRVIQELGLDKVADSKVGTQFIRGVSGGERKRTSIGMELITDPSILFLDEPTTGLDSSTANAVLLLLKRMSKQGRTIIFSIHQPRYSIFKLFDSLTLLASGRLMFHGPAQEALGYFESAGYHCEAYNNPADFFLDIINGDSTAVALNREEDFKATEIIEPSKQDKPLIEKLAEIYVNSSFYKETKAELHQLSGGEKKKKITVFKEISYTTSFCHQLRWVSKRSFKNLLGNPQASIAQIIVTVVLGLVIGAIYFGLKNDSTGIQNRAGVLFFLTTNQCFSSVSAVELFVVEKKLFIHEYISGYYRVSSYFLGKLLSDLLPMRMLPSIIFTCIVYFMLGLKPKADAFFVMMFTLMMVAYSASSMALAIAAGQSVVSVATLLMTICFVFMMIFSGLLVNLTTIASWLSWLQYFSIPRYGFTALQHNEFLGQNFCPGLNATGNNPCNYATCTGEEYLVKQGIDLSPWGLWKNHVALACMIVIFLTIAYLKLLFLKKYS
Source text: A Protoporphyrin IX(PPIX)-based ABCG2 inhibition assay was developed using the A549 cancer cell line.

RBCs of Fech-mut mice = assay: Effect on PPIX efflux from RBCs; type: cell-based; conditions: 10 μM, FIG. 14
Source text: Effects of ABCG2 Inhibitors on PPIX Efflux from RBCs.
PPIX in RBCs and culture medium was extracted, respectively, and analyzed by UPLC-QTOFMS.

[2] = Pharmacokinetic study in mice; type: in vivo; conditions: WT mice, 50 mg/kg by gavage, serum, FIG. 11
Method: Pharmacokinetic Study in Mice.
Blood was collected at 0, 0.25, 0.5, 1, 2, 4, 8, 12, 24 h after treatment. The concentration of target compound in serum was analyzed by UPLC-QTOFMS.

Fech-mut mice = assay: Efficacy against EPP-associated phototoxicity in vivo (Fech-mut mouse model)
Method: Efficacy of ABCG2 Inhibitors Against EPP-Associated Phototoxicity In Vivo.
The Fech-mut mouse model was used as an EPP model to determine the efficacy of ABCG2 inhibitors against EPP-associated phototoxicity, the most common symptom in EPP patients (6-8). […] After 5 days' treatment, all mice were sacrificed for evaluation of skin damage.
Thirty minutes after treatment, the mice were exposed to UV light for 30 minutes. The same treatment (drug plus light exposure) was repeated once daily for 4 days. From the 5th day, drug treatment was stopped, but the light exposure was continued for 4 more days. The gross appearance of mouse skin was recorded every day. On the 9th day, all mice were sacrificed and the back skin was collected for evaluation of phototoxicity.

carboxylesterase 1 = biological target: T2, carboxylesterase 1 (Homo sapiens, UniProt P23141); assay: Hydrolysis of tert-butyl ester group by carboxylesterase 1; type: in vitro ADME
T2 sequence (P23141 18-567): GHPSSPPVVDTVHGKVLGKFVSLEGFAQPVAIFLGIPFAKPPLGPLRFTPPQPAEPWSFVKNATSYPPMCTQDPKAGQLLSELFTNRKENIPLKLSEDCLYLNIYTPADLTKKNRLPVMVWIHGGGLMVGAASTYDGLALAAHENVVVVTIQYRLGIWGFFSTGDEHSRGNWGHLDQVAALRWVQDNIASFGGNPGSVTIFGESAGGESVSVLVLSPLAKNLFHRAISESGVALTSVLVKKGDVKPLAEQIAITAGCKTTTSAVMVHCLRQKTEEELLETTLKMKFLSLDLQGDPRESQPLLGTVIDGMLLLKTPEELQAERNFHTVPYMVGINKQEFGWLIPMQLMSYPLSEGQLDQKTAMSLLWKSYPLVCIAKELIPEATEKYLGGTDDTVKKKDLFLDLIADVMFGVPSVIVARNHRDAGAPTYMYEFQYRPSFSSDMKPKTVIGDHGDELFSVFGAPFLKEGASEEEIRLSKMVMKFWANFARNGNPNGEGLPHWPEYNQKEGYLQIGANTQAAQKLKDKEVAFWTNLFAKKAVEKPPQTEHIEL

[3] = read-out: CC50, the 50% cytotoxic concentration, MTT assay

| SMILES | HLM stability (% vs 0 min) 30 min [1] [%] | HLM stability (% vs 0 min) 60 min [1] [%] | CC50 (MTT cytotoxicity assay; [3]) [µM] | IC50 (ABCG2) [µM] | also measured |
| --- | --- | --- | --- | --- | --- |
| COc1ccc2c3c([nH]c2c1)[C@H](CC(C)C)N1C(=O)[C@H](CCCCNC(=O)C(C)(C)C)N(C(=O)C(C)(C)C)C(=O)[C@@H]1C3 [Compound K11, N-(4-((3S,6S,12aS)-6-isobutyl-9-methoxy-1,4-dioxo-2-pivaloyl-1,2,3,4,6,7,12,12a-octahydropyrazino[1′,2′:1,6]pyrido[3,4-b]indol-3-yl)butyl)pivalamide] | 7 | 7 |  |  | CC50 (MTT cytotoxicity assay): 39.6 µM |
| COC1=CC(=O)C[C@@H](C)[C@]12Oc1c(Cl)c(OC)cc(OC)c1C2=O [GSF, griseofulvin] |  |  |  |  | liver damage, PPIX accumulation, bile plugs (WT and Abcg2-null mice; Abcg2-null mice): these effects failed to occur; liver damage, PPIX accumulation, bile plugs (WT and Abcg2-null mice; WT mice): caused liver damage, PPIX accumulation, and bile plugs |
| COc1ccc2c3c([nH]c2c1)[C@H](CC(C)C)N1C(=O)[C@H](CC(=O)NC(C)(C)C)NC(=O)[C@@H]1C3 [Compound K3, N-(tert-butyl)-2-((3S,6S,12aS)-6-isobutyl-9-methoxy-1,4-dioxo-1,2,3,4,6,7,12,12a-octahydropyrazino[1′,2′:1,6]pyrido[3,4-b]indol-3-yl)acetamide] | 74 | 60 | 58.9 | 0.18 |  |
| CCOC(=O)C1=C(C)NC(C)=C(C(=O)OCC)C1C [DDC, 3,5-diethoxycarbonyl-1,4-dihydrocollidine] |  |  |  |  | liver damage, PPIX accumulation, bile plugs (WT and Abcg2-null mice; Abcg2-null mice): these effects failed to occur; liver damage, PPIX accumulation, bile plugs (WT and Abcg2-null mice; WT mice): caused liver damage, PPIX accumulation, and bile plugs |
| COc1ccc2c3c([nH]c2c1)[C@H](CC(C)C)N1C(=O)[C@H](CC(=O)NC(C)C)NC(=O)[C@@H]1C3 [Compound K31, 2-((3S,6S,12aS)-6-isobutyl-9-methoxy-1,4-dioxo-1,2,3,4,6,7,12,12a-octahydropyrazino[1′,2′:1,6]pyrido[3,4-b]indol-3-yl)-N-isopropylacetamide] | 65 | 49 | > 100 | 0.27 | PPIX efflux from RBCs (RBCs of Fech-mut mice): significantly inhibited PPIX efflux from RBCs; pharmacokinetic profile ([2]; 50 mg/kg): better pharmacokinetic profiles than KO143; also recorded: ideal pharmacokinetic profile; protection from phototoxicity in EPP mouse model (Fech-mut mice; Fech-mut mice pretreated 30 min, then UV light (395-410 nm) 30 min, 5 days, FIG. 12): fully protected the EPP mice from phototoxicity; phototoxicity after withdrawal (withdrawal test) (Fech-mut mice; Fech-mut mice, 100 mg/kg po plus light day 1 to 4, light only from day 5, FIG. 13): showed phototoxicity soon after the withdrawal of K31 |
| COc1ccc2c3c([nH]c2c1)[C@H](CC(C)C)N1C(=O)[C@H](CCCOC(C)(C)C)NC(=O)[C@@H]1C3 [Compound K7, (3S,6S,12aS)-3-(3-(tert-butoxy)propyl)-6-isobutyl-9-methoxy-2,3,12,12a-tetrahydropyrazino[1′,2′:1,6]pyrido[3,4-b]indole-1,4(6H,7H)-dione] | 16 | 9 |  | 0.09 | CC50 (in vitro): > 100 µM |
| COc1ccc2c3c([nH]c2c1)[C@H](CC(C)C)N1C(=O)[C@H](CC(=O)NCc2ccccc2)NC(=O)[C@@H]1C3 [Compound K33, N-benzyl-2-((3S,6S,12aS)-6-isobutyl-9-methoxy-1,4-dioxo-1,2,3,4,6,7,12,12a-octahydropyrazino[1′,2′:1,6]pyrido[3,4-b]indol-3-yl)acetamide] | 37 | 18 | 31.1 | 0.25 |  |
| COc1ccc2c3c([nH]c2c1)[C@H](CC(C)C)N1C(=O)[C@H](CCC(=O)NC(C)C)NC(=O)[C@@H]1C3 [Compound K34, 3-((3S,6S,12aS)-6-isobutyl-9-methoxy-1,4-dioxo-1,2,3,4,6,7,12,12a-octahydropyrazino[1′,2′:1,6]pyrido[3,4-b]indol-3-yl)-N-isopropylpropanamide] |  |  |  |  | pharmacokinetic profile [2]: better pharmacokinetic profiles than KO143 |
| COc1ccc2c3c([nH]c2c1)[C@H](CC(C)C)N1C(=O)[C@H](CC(=O)N2CCCCC2)NC(=O)[C@@H]1C3 [Compound K25, (3S,6S,12aS)-6-isobutyl-9-methoxy-3-(2-oxo-2-(piperidin-1-yl)ethyl)-2,3,12,12a-tetrahydropyrazino[1′,2′:1,6]pyrido[3,4-b]indole-1,4(6H,7H)-dione] |  |  | 26.5 | 3.14 |  |
| COc1ccc2c3c([nH]c2c1)[C@H](CC(C)C)N1C(=O)[C@H](CC(=O)NC2CCCCC2)NC(=O)[C@@H]1C3 [Compound K23, N-cyclohexyl-2-((3S,6S,12aS)-6-isobutyl-9-methoxy-1,4-dioxo-1,2,3,4,6,7,12,12a-octahydropyrazino[1′,2′:1,6]pyrido[3,4-b]indol-3-yl)acetamide] | 45 | 26 | 46.6 | 0.13 |  |
| COc1ccc2c3c([nH]c2c1)[C@H](CC(C)C)N1C(=O)[C@H](CCC(=O)OC(C)(C)C)NC(=O)[C@@H]1C3 [KO143, reference compound] |  |  |  |  | stability (hydrolysis of tert-butyl ester group) (carboxylesterase 1): very unstable; pharmacokinetic profile [2]: poor oral pharmacokinetic profile |
| COc1ccc2c3c([nH]c2c1)[C@H](CC(C)C)N1C(=O)[C@H](CCC(=O)NC(C)(C)C)NC(=O)[C@@H]1C3 [Compound K2, N-(tert-butyl)-3-((3S,6S,12aS)-6-isobutyl-9-methoxy-1,4-dioxo-1,2,3,4,6,7,12,12a-octahydropyrazino[1′,2′:1,6]pyrido[3,4-b]indol-3-yl)propanamide] |  |  |  |  | pharmacokinetic profile [2]: better pharmacokinetic profiles than KO143 |
